Assays:
NIH3T3 cells = experiment: Tests for facilitating the proliferation of mouse fibroblast cell line NIH3T3 (CCK-8); format: cell-based; settings: peptide 10 μM; 24, 48 and 72 hours; CCK-8 absorbance at 475 nm; FIG. 1
Experimental: The NIH3T3 cells (mouse fibroblast cell line, ATCC CRL-1658, USA), along with 100 μl of Dulbecco's Modified Eagle medium (DMEM), were added to each well of the 96-well microplate in the concentration of 5×10^3 cells per well, and then cultured in a 5% CO2 incubator at 37° C. for 24 hours. The peptide solutions (100 μl) having the respective peptide of SEQ ID NOs: 1, 2, 3 and 5 in the concentration of 10 μM were added to each well. While incubating the cells for 24, 48, and 72 hours therefrom, 10 μl of CCK-8 (Dojindo Laboratories, Japan) was added to each well and then the respective absorbance at 475 nm was measured with Spectramax plus 190 plate reader (Molecular Devices, USA).

procollagen type-1 = experiment: Activation of the procollagen type-1 expression in fibroblasts (Western blotting); format: cell-based, mouse; settings: NIH3T3 cells, peptide 0.1, 1 and 10 μM, 48 hours, concentration-dependent, FIG. 2
Experimental: Since facilitation of the collagen fiber synthesis is one of the principal means for inhibiting skin aging, we evaluate whether the collagen synthesis in fibroblasts is facilitated by the treatment of the peptides of the present invention, using the NIH3T3 cells (mouse fibroblast cell line, ATCC CRL-1658, USA). The fibroblasts were treated with the peptides of SEQ ID NOs: 1, 2, 3 and 5, in the concentrations of 0.1, 1 and 10 μM, respectively. After 48 hours, the cell extracts were subject to the Western blotting assay so as to measure the expressions of procollagen type-1. […] Therefore, it can be seen that the peptides of the present invention can inhibit skin aging derived from loss of collagen, especially skin wrinkle.

profilaggrin = experiment: Control of the profilaggrin expression in human keratinocyte cell line HaCaT (Western blotting); format: cell-based; settings: HaCaT cells, peptide 0.1, 1.0 and 10 μM, 48 hours, concentration-dependent, FIG. 3
Experimental: Since profilaggrin is one of the principal elements for constituting skin barrier, we evaluate whether the profilaggrin synthesis in keratinocytes is facilitated by the treatment of the peptides of the present invention, using the HaCaT cells (human keratinocyte cell line, DKFZ, Heidelberg, Germany). The HaCaT cells were treated with the peptides of SEQ ID NOs: 3 and 5, in the concentrations of 0.1, 1.0 and 10 μM. After 48 hours, the cell extracts were subject to the Western blotting assay so as to measure the expressions of profilaggrin. […] Therefore, it can be seen that the peptides of the present invention have a skin-moisturizing activity through facilitating the profilaggrin expression.

Row | Substance | proliferations of NIH3T3 cells (NIH3T3 cells) | expressions of procollagen type-1 (procollagen type-1) | expressions of profilaggrin (profilaggrin)
1 | Tyr-His-Ile-Thr (YHIT; Peptide fragment) [SEQ ID NO: 1, adiponectin-derived peptide fragment] | significantly increased | increased | –
2 | Phe-Thr-Tyr (FTY; Peptide fragment) [SEQ ID NO: 5, adiponectin-derived peptide fragment] | significantly increased | increased | increased
3 | His-Ile-Thr (HIT; Peptide fragment) [SEQ ID NO: 2, adiponectin-derived peptide fragment] | significantly increased | increased | –
4 | Leu-Phe-Thr-Tyr-Asp (LFTYD; Peptide fragment) [SEQ ID NO: 3, adiponectin-derived peptide fragment] | significantly increased | increased | increased
